Reference: the supplement of paper PMC10307832

What was measured:
Test in all cases: relative viability (nuclei count vs DMSO), 5 days (fraction); higher = more cells survive
201T = tested on: 201T
Outline: (§1)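 Relative viability is defined as nuclei in treated wells over nuclei in vehicle wells. Duplicate plates were run and medians reported. Lung cancer cell lines in 1536-well plates were dosed by pin tool one day after seeding, with one drug or with a fixed anchor-drug dose plus five library-drug doses (not always all listed) in √10 steps, and nuclei were counted after 5 days.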

NCI-H23 = tested on: NCI-H23
Outline: as §1

PC-14 = tested on: PC-14
Outline: as §1

LCLC-97TM1 = tested on: LCLC-97TM1
Outline: as §1

NCI-H1666 = tested on: NCI-H1666
Outline: as §1

H3255 = tested on: H3255
Outline: as §1

EPLC-272H = tested on: EPLC-272H
Outline: as §1

NCI-H647 = tested on: NCI-H647
Outline: as §1

NCI-H2405 = tested on: NCI-H2405
Outline: as §1

LC-2-ad = tested on: LC-2-ad
Outline: as §1

HCC-827 = tested on: HCC-827
Outline: as §1

Cc1sc2c(c1C)C(c1ccc(Cl)cc1)=N[C@@H](CC(=O)OC(C)(C)C)c1nnc(C)n1-2 [JQ1] + Cc1nc(NC(=O)N2CCC[C@H]2C(N)=O)sc1-c1ccnc(C(C)(C)C(F)(F)F)c1 [Alpelisib] (partner 2 µM)
relative viability (201T; first compound 0.1265 µM): 0.926 | relative viability (201T; first compound 0.4 µM): 0.939 | relative viability (201T; first compound 1.265 µM): 0.715 | relative viability (201T; first compound 4 µM): 0.567 | relative viability (NCI-H23; first compound 0.04 µM): 0.62 | relative viability (NCI-H23; first compound 0.1265 µM): 0.726 | relative viability (NCI-H23; first compound 0.4 µM): 0.454 | relative viability (NCI-H23; first compound 1.265 µM): 0.292 | relative viability (NCI-H23; first compound 4 µM): 0.297 | relative viability (PC-14; first compound 0.04 µM): 0.974 | relative viability (PC-14; first compound 0.1265 µM): 0.921 | relative viability (PC-14; first compound 0.4 µM): 0.885 | relative viability (PC-14; first compound 1.265 µM): 0.59 | relative viability (PC-14; first compound 4 µM): 0.351 | relative viability (LCLC-97TM1; first compound 0.1265 µM): 0.233 | relative viability (LCLC-97TM1; first compound 0.4 µM): 0.232 | relative viability (LCLC-97TM1; first compound 1.265 µM): 0.133 | relative viability (LCLC-97TM1; first compound 4 µM): 0.128 | relative viability (NCI-H1666; first compound 0.04 µM): 0.802 | relative viability (NCI-H1666; first compound 0.1265 µM): 1.04 | relative viability (NCI-H1666; first compound 0.4 µM): 0.696 | relative viability (NCI-H1666; first compound 1.265 µM): 0.507 | relative viability (NCI-H1666; first compound 4 µM): 0.444 | relative viability (H3255; first compound 0.04 µM): 0.691 | relative viability (H3255; first compound 0.1265 µM): 0.62 | relative viability (H3255; first compound 0.4 µM): 0.619 | relative viability (H3255; first compound 1.265 µM): 0.34 | relative viability (H3255; first compound 4 µM): 0.296 | relative viability (EPLC-272H; first compound 0.04 µM): 0.897 | relative viability (EPLC-272H; first compound 0.1265 µM): 0.904 | relative viability (EPLC-272H; first compound 0.4 µM): 0.889 | relative viability (EPLC-272H; first compound 1.265 µM): 0.423 | relative viability (EPLC-272H; first compound 4 µM): 0.376 | relative viability (NCI-H647; first compound 0.04 µM): 0.998 | relative viability (NCI-H647; first compound 0.1265 µM): 0.596 | relative viability (NCI-H647; first compound 0.4 µM): 0.447 | relative viability (NCI-H647; first compound 1.265 µM): 0.156 | relative viability (NCI-H647; first compound 4 µM): 0.132 | relative viability (NCI-H2405; first compound 0.04 µM): 0.824 | relative viability (NCI-H2405; first compound 0.4 µM): 0.74 | relative viability (NCI-H2405; first compound 1.265 µM): 0.436 | relative viability (NCI-H2405; first compound 4 µM): 0.256 | relative viability (LC-2-ad; first compound 0.04 µM): 0.953 | relative viability (LC-2-ad; first compound 0.1265 µM): 0.794 | relative viability (LC-2-ad; first compound 0.4 µM): 0.54 | relative viability (LC-2-ad; first compound 1.265 µM): 0.289 | relative viability (LC-2-ad; first compound 4 µM): 0.217 | relative viability (HCC-827; first compound 0.04 µM): 0.929 | relative viability (HCC-827; first compound 0.4 µM): 0.672 | relative viability (HCC-827; first compound 1.265 µM): 1.07 | relative viability (HCC-827; first compound 4 µM): 1.11
